In patent USRE47078E1, “Polymorphic forms of N-[4-(trifluoromethyl)benzyl]-4-methoxybutyramide” (Laboratorio Farmaceutico C.T. S.R.L., priority 2007, dated 2018):

Key:
[1] = target: T1, HERG tail current (Homo sapiens, UniProt Q12809); experiment: HERG tail current, patch clamp in HEK-293 cells; format: cell-based
T1 construct: expressed in transfected cells; host or cells: HEK-293
Description: A possible blocking effect of polymorphic Form A on Herg tail current recorded from HEK-293 cells (Human Embryonic Kidney cells) stably transfected with HERGG-1 cDNA was investigated. The method consisted in measuring the HERG tail current by using the patch clamp techniques in the whole cell configuration. Compounds which inhibited HERG current were recognized to prolong the cardiac action potential and increase QT interval.

[2] = system: Salmonella typhimurium; experiment: Salmonella Typhimurium Reverse Mutation Assay (Ames test); format: cell-based
Description: The mutagenic potential of polymorphic Form A was evaluated in vitro in the Salmonella Typhimurium Reverse Mutation Assay according to EC guidelines. […] Therefore polymorphic Form A is to be considered non-mutagenic in this Salmonella typhimurium reverse mutation assay.

[3] = system: Sardinian Alcohol preferring rats (sP); experiment: Alcohol Deprivation Effect in deprived sP rats; format: in vivo, rat
Description: (§1) Tests were carried out in Sardinian Alcohol preferring rats (sP), i.e. a rodent line genetically selected for their spontaneous alcohol consume. These animals were adopted as the main specific animal model in the research program due to the fact that these rats (kept in a free-choice regimen between water and a 10% ethanol solution) consume large amounts of alcohol (6-7 g/Kg/day), sharing a great preference for […] (80-100%).
(§2) Under the standard, these rats are subjected to homecage two-bottle free choice regimen between 10% alcohol and water with unlimited access (24 h/day) and they show these features: daily intake of about 6 g/Kg of alcohol; preference ratio (alcohol solution vs total fluids) above 80%; fractioning of daily alcohol intake in 3-4 binges; achievement of BALs (Blood Alcohol Levels) above 50 mg % at each binge; induction of pharmaceutical effects (anxiolysis, motor stimulation) and regulation by a central, hedonic set-point mechanism.
2. Alcohol Deprivation Effect in Deprived sP Rats
To further characterize the anti-alcohol effect of polymorphic Form A, this compound was evaluated on the Alcohol Deprivation Effect (ADE). […] Intake was measured 1 hour after lights off.

[4] = system: isolated canine Purkinje fibres; experiment: Cardiac action potential in isolated canine Purkinje fibres
Description: A possible adverse effect induced by polymorphic Form A on cardiac action potential was evaluated in isolated canine Purkinje fibres. Transmembrane action potential was measured by means of the intracellular microelectrode technique; this method is recommended to detect the capacity of a substance to induce prolongation of the QT interval.

[5] = Thermodynamic stability / interconversion of the polymorphs; format: physicochemical
[6] = Acute toxicity in rat; conditions: in vivo, single
Description: Single and repeated-dose toxicity studies in rodents and non-rodents were carried out to support the clinical trials of the test compound, i.e. polymorphic Form A. Single toxicity studies were performed in mice and rats by the intraperitoneal and the oral routes. Repeated oral studies (28 days administration followed by 14 days recovery period) were performed in rats and dogs.

[7] = system: immune system; experiment: PCF test (Plaque Forming Cells) in rats; format: in vivo, rat
Description: A possible effect of polymorphic Form A on the immune system was evaluated by using the method system of Plaque Forming Cells (PCF) in the rat, following oral administration to rats for 28 days at the doses of 150, 250 and 500 mg/kg. The method is based on the stimulation of the immune system with an antigenic agent (sheep's red blood cells) and on the evaluation of the effect of the test item on the immune response. The immune response was assessed by measuring the proportion of splenocytes which produced antibodies against the antigenic agent (Plaque Forming Cells) in presence of complement. […] In fact, statistical analysis evidenced a significativity at 150 mg/kg, but not at 250 mg/kg; these findings might indicate that the effects is observed at these doses could be due to the variability normally present in this test as heterogeneity in immune response is often seen and it is likely to be related to individual differences in immune sensitivity, […]

[8] = system: conscious rats; experiment: Respiratory evaluation in conscious rats (whole body plethysmography); format: in vivo, rat
Description: (§3) The possible adverse effects of polymorphic Form A on the CNS, cardiovascular, respiratory and immune functions were evaluated in vitro and in vivo (rats and dogs) in different experimental models. In the in vivo tests, the tested compound was always given by single oral administration at the doses of 100, 300 and 1000 mg/kg.
The effect of polymorphic Form A on respiratory parameters (respiratory rate, peak inspiratory and peak expiratory flows, inspiration and expiration times, airway resistance index, minute volume and tidal volume) was assessed in conscious rats after single oral administration. Respiration was measured by the whole body plethysmography method.

[9] = system: rats; experiment: Proconvulsant activity in rats (pentylenetetrazol); format: in vivo, rat; conditions: with pentylenetetrazol
Description: as §3

[10] = system: rats; experiment: Irwin's test and body temperature in rats; format: in vivo, rat
Description: as §3
Neurobehavioural effects of polymorphic Form A have been investigated according to the Irwin Test by using a standard observation battery, which allows the assessment of both peripheral and central nervous system activities (e.g. motor activity, motor co-ordination, somatic sensory/motor reflex responses, autonomic responses); body temperature was measured by means of an electronic thermometer.

[11] = system: Sardinian Alcohol preferring rats (sP); experiment: Spontaneous alcohol intake in non deprived sP rats; format: in vivo, rat
Description: as §1, §2
1. Spontaneous Alcohol Intake in Non Deprived sP Rats
According to this model, the alcohol intake in a two bottles free-choice regimen represents the “active drinking” phase of human alcoholism. Therefore the tested active compounds should decrease the propension of rats to consume alcohol. […] In FIG. 8A the results of a single experiment are shown. Specifically 10, 20, 25 and 50 mg/kg doses of polymorphic Form A were administered and the alcohol intake was evaluated.

T1 sequence (Q12809 whole entry): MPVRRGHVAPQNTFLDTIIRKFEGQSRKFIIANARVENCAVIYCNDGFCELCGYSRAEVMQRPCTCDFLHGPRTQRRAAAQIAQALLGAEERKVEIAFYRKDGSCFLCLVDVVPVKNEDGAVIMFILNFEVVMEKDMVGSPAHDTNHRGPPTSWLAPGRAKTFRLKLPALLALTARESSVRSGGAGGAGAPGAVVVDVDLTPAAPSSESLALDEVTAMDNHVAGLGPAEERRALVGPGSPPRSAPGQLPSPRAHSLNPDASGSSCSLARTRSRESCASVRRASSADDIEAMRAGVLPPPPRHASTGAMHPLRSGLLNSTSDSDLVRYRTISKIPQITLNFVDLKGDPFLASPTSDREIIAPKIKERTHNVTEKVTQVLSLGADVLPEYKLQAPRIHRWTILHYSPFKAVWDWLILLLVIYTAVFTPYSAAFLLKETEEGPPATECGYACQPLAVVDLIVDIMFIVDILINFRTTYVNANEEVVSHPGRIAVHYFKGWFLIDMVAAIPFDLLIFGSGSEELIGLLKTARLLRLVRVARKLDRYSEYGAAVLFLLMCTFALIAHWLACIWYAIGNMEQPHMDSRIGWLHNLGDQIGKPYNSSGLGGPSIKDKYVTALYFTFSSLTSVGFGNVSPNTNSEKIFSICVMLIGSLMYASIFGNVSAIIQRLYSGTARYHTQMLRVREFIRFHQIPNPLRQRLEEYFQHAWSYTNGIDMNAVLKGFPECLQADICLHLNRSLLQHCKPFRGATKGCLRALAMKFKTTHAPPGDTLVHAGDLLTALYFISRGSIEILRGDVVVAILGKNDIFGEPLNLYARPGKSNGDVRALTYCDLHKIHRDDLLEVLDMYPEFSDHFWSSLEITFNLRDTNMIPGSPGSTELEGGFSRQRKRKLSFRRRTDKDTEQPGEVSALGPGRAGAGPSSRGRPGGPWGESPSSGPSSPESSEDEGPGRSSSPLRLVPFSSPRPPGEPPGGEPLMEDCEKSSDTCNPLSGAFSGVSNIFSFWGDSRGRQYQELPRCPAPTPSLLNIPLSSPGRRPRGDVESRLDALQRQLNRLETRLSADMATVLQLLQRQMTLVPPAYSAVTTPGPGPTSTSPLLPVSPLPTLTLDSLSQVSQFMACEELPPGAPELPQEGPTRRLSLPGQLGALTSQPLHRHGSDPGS

COCCCC(=O)NCc1ccc(C(F)(F)F)cc1 [Polymorphic Form A, N-[4-(trifluoromethyl)benzyl]-4-methoxybutyramide]
Reduction of HERG tail current ([1]; 10^−4 M, highest concentration tested): about 50%
Inhibition of HERG tail current ([1]; 10^−6 and 10^−5 M): slight and non dose-dependent decrease
Inhibition of HERG tail current ([1]; 10^−7 M): no statistically significant inhibition
Inhibition of HERG tail current, highest value reached ([1]; all concentrations, 70% is the threshold for an active compound): < 70%
Genotoxicity, Ames test result ([2]; S. typhimurium, in vitro, 3-500 μg/ml): Negative
Gene mutations by base pair changes or frameshifts ([2]; TA 1535, TA 1537, TA 98, TA 100, TA102, 50 to 3000 μg/ml, with and without metabolic activation): did not induce gene mutations
Extra-consume of alcohol (ADE) ([3]; 5 mg/Kg): completely abolish the extra-consume of alcohol
Alcohol Deprivation Effect (ADE) ([3]; dose range 5-100 mg/Kg, given 30 min before lights off, intake 1 hour after lights off): completely suppressed ADE effect
Action potential duration of repolarisation ([4]; 10^−4 M): significant decrease in action potential duration of repolarisation
Action potential parameters ([4]; 10^−7, 10^−6 and 10^−5 M, normal or low stimulation rates): no statistically significant effect
Early or delayed after-depolarisation ([4]; all the concentrations tested): neither early nor delayed after-depolarisation were recorded
Thermodynamic stability, conversion of one form into the other [5]: thermodynamically stable, with no conversion of one into the other
LD50 ([6]; ip, dose-range 200-1000): ~800 mg/kg
LD50 ([6]; oral, os, dose-range 2000-4000): > 4000 mg/kg
Immunosuppressant activity (Plaque Forming Cells) ([7]; 500 mg/kg oral, 28 days): clear-cut
Immunosuppressant activity (Plaque Forming Cells) ([7]; 150 and 250 mg/kg oral, 28 days): comparable borderline effect
Immunosuppressant activity (Plaque Forming Cells) ([7]; oral, 28 days, 150, 250 and 500 mg/kg): slight and not dose-dependent immunosuppressant activity
Respiratory parameters ([8]; 100 mg/kg single oral): no relevant effect on respiratory parameters
Peak inspiratory and peak expiratory flows, minute volume, airway resistance index ([8]; 100, 300 and 1000 mg/kg single oral): No statistically change
Respiratory rate and tidal volume ([8]; 300 and 1000 mg/kg single oral): tachypnoea associated to a transient reduction in tidal volume
Time of occurrence of seizures ([9]; 100 and 300 mg/kg oral): increase in the time of occurrence of seizures
Proconvulsant effect ([9]; all the doses (100, 300, 1000 mg/kg oral)): no statistical significant proconvulsant effect
Body temperature ([10]; 100 mg/kg single oral): not affected
Spontaneous locomotor activity (Irwin test) ([10]; 100 mg/kg single oral): transient decrease in spontaneous locomotor activity
Posture / neurobehavioural signs (Irwin test) ([10]; 1000 mg/kg single oral, all the effects were reversible): tip toe position, ataxic and subsequently a lying recumbent or flattened position
Effect on locomotion (Irwin test) ([10]; higher doses (300 and 1000 mg/kg) single oral, with myorelaxant effect and decrease in awareness): more marked and more long lasting
Body temperature ([10]; higher doses (300 and 1000 mg/kg), up to four hours): significant decrease in body temperature
Alcohol intake ([11]; 10 mg/kg, single experiment of FIG. 8A): significantly reduced alcohol intake
Alcohol intake ([11]; 10-100 mg/kg, intragastric acute administration): decreases the alcohol intake
Food intake ([11]; sP rats, data not reported): normal food intake
Water intake ([11]; sP rats, data not reported): compensatory increase of water intake
